These results are taken from patent US12503471B2, “Triazatricycle compounds for the treatment of autoimmune disease” (Hoffmann-La Roche Inc., priority 2019, dated 2025).

Series [1] can be described thus: Human microsomal stability assay. It counts as in vitro ADME. The note with it: human liver microsomes, 1 μM test compound, 0.5 mg/mL protein, 37° C., pH 7.4. As to the method: Human Microsomal Stability Assay
Human liver microsomes (Cat.NO.: 452117, Corning, USA) were preincubated with test compound for 10 minutes at 37° C. in 100 mM potassium phosphate buffer, pH 7.4. The reactions were initiated by adding NADPH regenerating system. The final incubation mixtures contained 1 μM test compound, 0.5 mg/mL liver microsomal protein, 1 mM MgCl2, 1 mM NADP, 1 unit/mL isocitric dehydrogenase and 6 mM isocitric acid in 100 mM potassium phosphate buffer, pH 7.4. After incubation times of 0, 3, 6, 9, 15 and 30 minutes at 37° C., 300 μL of cold ACN (including internal standard) was added to 100 μL incubation mixture to terminate the reaction. Following precipitation and centrifugation, 100 uL supernatant will be taken out and added 300 uL water. The amount of compound remaining in the samples was determined by LC-MS/MS. Controls of no NADPH regenerating system at zero and 30 minutes were also prepared and analyzed. The results were categorized as: low (7.0 mL/min/kg), medium (7.0-16.2 mL/min/kg) and high (16.2-23.2 mL/min/kg).
A general note: Liver microsomes are vesicles of endoplasmic reticulum, rich in cytochrome P450 enzymes.

For the next series, the target named is T1, human TLR9 (Homo sapiens, UniProt Q9NR96).
T1 construct: host or cells: HEK293 (HEK-Blue hTLR9)
T1 sequence (Q9NR96 26-1032): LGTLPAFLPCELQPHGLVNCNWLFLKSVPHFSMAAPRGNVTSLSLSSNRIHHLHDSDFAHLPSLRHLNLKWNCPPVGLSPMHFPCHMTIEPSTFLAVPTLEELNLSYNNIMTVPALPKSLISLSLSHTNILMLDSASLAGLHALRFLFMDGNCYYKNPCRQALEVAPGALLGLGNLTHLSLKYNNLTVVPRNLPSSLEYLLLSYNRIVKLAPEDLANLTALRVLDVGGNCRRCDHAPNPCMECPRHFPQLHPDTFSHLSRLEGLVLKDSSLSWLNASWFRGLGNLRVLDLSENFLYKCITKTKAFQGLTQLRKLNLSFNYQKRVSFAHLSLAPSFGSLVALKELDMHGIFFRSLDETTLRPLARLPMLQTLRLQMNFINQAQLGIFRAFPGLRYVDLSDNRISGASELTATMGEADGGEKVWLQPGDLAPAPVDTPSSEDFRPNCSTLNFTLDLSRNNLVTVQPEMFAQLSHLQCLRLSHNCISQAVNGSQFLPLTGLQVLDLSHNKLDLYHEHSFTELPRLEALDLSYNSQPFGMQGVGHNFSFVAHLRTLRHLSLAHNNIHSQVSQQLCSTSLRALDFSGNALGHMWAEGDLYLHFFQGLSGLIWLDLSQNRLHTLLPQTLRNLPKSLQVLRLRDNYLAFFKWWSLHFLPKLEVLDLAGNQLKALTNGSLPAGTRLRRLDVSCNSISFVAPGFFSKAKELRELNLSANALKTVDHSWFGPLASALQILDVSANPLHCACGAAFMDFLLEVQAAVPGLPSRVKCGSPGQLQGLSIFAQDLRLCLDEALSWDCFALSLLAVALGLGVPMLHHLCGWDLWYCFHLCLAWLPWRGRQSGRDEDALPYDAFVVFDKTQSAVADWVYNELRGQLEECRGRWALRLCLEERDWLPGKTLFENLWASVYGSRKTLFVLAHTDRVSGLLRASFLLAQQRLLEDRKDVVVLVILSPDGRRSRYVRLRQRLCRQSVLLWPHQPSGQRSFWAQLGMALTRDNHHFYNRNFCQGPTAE
Briefly: HEK293-Blue-hTLR-9 cells assay. It counts as cell-based. The note with it: HEK293-Blue-hTLR9 cells, ODN2006 stimulation, 20 hrs, SEAP reporter; read-out: HEK/hTLR9 IC50. The source says:
HEK293-Blue-hTLR-9 Cells Assay:
A stable HEK293-Blue-hTLR-9 cell line was purchased from InvivoGen (Cat. #: hkb-htlr9, San Diego, Calif., USA). These cells were originally designed for studying the stimulation of human TLR9 by monitoring the activation of NF-κB. A SEAP (secreted embryonic alkaline phosphatase) reporter gene was placed under the control of the IFN-β minimal promoter fused to five NF-κB and AP-1-binding sites. The SEAP was induced by activating NF-κB and AP-1 via stimulating HEK-Blue hTLR9 cells with TLR9 ligands. Therefore the reporter expression was declined by TLR9 antagonist under the stimulation of a ligand, such as ODN2006 (Cat. #: tlrl-2006-1, Invivogen, San Diego, Calif., USA), for incubation of 20 hrs. The cell culture supernatant SEAP reporter activity was determined using QUANTI-Blue^TM kit (Cat. #: rep-qbl, Invivogen, San Diego, Calif., USA) at a wavelength of 640 nm, a detection medium that turns purple or blue in the presence of alkaline phosphatase.
HEK293-Blue-hTLR9 cells were incubated at a density of 250,000˜450,000 cells/mL in a volume of 170 μL in a 96-well plate in Dulbecco's Modified Eagle's medium (DMEM) containing 4.5 g/L glucose, 50 U/mL penicillin, […] streptomycin, […] Normocin, 2 mM L-glutamine, 10% (v/v) heat-inactivated fetal bovine serum with addition of 20 μL test compound in a serial dilution in the presence of final DMSO at 1% and 10 μL of 20 uM ODN2006 in above DMEM, perform incubation under 37° C. in a CO2 incubator for 20 hrs. Then 20 μL of the supernatant from each well was incubated with 180 μL Quanti-blue substrate solution at 37° C. for 2 h and the absorbance was read at 620-655 nm using a spectrophotometer. The signaling pathway that TLR9 activation leads to downstream NF-κB activation has been widely accepted, and therefore similar reporter assay was modified for evaluating TLR9 antagonist.

Regarding `CC1(N)CCN(c2ccc3c(n2)CN2CCN(c4ccc(C#N)c5ncccc45)C[C@@H]32)CC1` [Example 4A, 5-[(2R)-11-(4-amino-4-methyl-1-piperidyl)-4,7,10-triazatricyclo[7.4.0.02,7]trideca-1(9),10,12-trien-4-yl]quinoline-8-carbonitrile], the “CL (h)” value in series [1] was 8.9 mL/min/kg. Further, the IC50 on human TLR9 came to 56.6 nM.
The like results for `C[C@@H]1CN(c2ccc(C#N)c3ncccc23)C[C@@H]2c3ccc(N4CC5CNCC(C4)O5)nc3CN12` [Example 6, 5-[(2S,6R)-6-methyl-11-(9-oxa-3,7-diazabicyclo[3.3.1]nonan-3-yl)-4,7,10-triazatricyclo[7.4.0.02,7]trideca-1(9),10,12-trien-4-yl]quinoline-8-carbonitrile] were, in that order, 6.2 mL/min/kg and 195 nM.
As for `N#Cc1ccc(N2CCN3Cc4nc(N5CCNCC5)ccc4[C@@H]3C2)c2cccnc12` [Example 3A, 5-[(2R)-11-piperazin-1-yl-4,7,10-triazatricyclo[7.4.0.02,7]trideca-1(9),10,12-trien-4-yl]quinoline-8-carbonitrile], the “CL (h)” value in series [1] was determined as 8.4 mL/min/kg. Moreover, the IC50 at human TLR9 is 142 nM.
`[2H]c1ccc2c(N3C[C@@H](C)N4Cc5nc(N6CC[C@@H](N)[C@H](OC)C6)ccc5[C@H]4C3)ccc(C#N)c2n1` [Example 11, 5-[(2S,6R)-11-[(3R,4R)-4-amino-3-methoxy-1-piperidyl]-6-methyl-4,7,10-triazatricyclo[7.4.0.02,7]trideca-1(9),10,12-trien-4-yl]-2-deuterio-quinoline-8-carbonitrile]: the “CL (h)” value in series [1] is given as 7.1 mL/min/kg. Besides, the IC50 at human TLR9 is 202 nM.
The like results for `C[C@@H]1CN(c2ccc(C#N)n3nccc23)C[C@@H]2c3ccc(N4C[C@@H]5C[C@H]4CN5)nc3CN12` [Example 21, 4-[(2S,6R)-11-[(1S,4S)-2,5-diazabicyclo[2.2.1]heptan-2-yl]-6-methyl-4,7,10-triazatricyclo[7.4.0.02,7]trideca-1(9),10,12-trien-4-yl]pyrazolo[1,5-a]pyridine-7-carbonitrile] were, in that order, 6.6 mL/min/kg and 177 nM.
The like results for `[2H]c1ccc2c(N3C[C@@H](C)N4Cc5nc(C6CCNCC6)ccc5[C@H]4C3)ccc(C#N)c2n1` [Example 23, 2-Deuterio-5-[(2S,6R)-6-methyl-11-(4-piperidyl)-4,7,10-triazatricyclo[7.4.0.02,7]trideca-1(9),10,12-trien-4-yl]quinoline-8-carbonitrile] were, in that order, 6.2 mL/min/kg and 232 nM.
The like results for `C[C@@H]1CN(c2ccc(C#N)c3ncccc23)C[C@@H]2c3cnc(N4CCNCC4)cc3CN12` [Example 2, 5-[(2S,6R)-6-methyl-11-piperazin-1-yl-4,7,12-triazatricyclo[7.4.0.02,7]trideca-1(9),10,12-trien-4-yl] quinoline-8-carbonitrile] were, in that order, 6.2 mL/min/kg and 449 nM.
Turning to `[2H]c1ccc2c(N3C[C@@H](C)N4Cc5nc(OC6CCNCC6)ccc5[C@H]4C3)ccc(C#N)c2n1` [Example 24, 2-Deuterio-5-[(2S,6R)-6-methyl-11-(4-piperidyloxy)-4,7,10-triazatricyclo[7.4.0.02,7]trideca-1(9),10,12-trien-4-yl]quinoline-8-carbonitrile], in series [1], the “CL (h)” value was found to be 6.2 mL/min/kg. Besides, the IC50 at human TLR9 was 118 nM.
The like results for `[2H]c1ccc2c(N3C[C@@H](C)N4Cc5nc(N6CC[C@@](C)(N)C6)ccc5[C@H]4C3)ccc(C#N)c2n1` [Example 7, 5-[(2S,6R)-11-[(3R)-3-amino-3-methyl-pyrrolidin-1-yl]-6-methyl-4,7,10-triazatricyclo[7.4.0.02,7]trideca-1(9),10,12-trien-4-yl]-2-deuterio-quinoline-8-carbonitrile] were, in that order, 6.2 mL/min/kg and 236 nM.
